Test results from ChEMBL document CHEMBL1201862, “PubChem BioAssay data set” (2004).
Active and inactive are the calls of the source.

Tests used:
[1] = molecular target: T1, Heat shock factor protein 1 (Mus musculus, UniProt P38532); assay: inhibition of MG132-induced HSE-luciferase signal, confirmation, cell-based, NIH3T3, luminescence, dose retest (AID 2382); format: functional;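 note: NIH3T3 fibroblasts with HSF1-driven luciferase reporter stressed by proteasome inhibitor MG132; luminescence from HSF1-driven luciferase expression after 8 hours of MG132 stress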
T1 sequence (P38532 whole entry): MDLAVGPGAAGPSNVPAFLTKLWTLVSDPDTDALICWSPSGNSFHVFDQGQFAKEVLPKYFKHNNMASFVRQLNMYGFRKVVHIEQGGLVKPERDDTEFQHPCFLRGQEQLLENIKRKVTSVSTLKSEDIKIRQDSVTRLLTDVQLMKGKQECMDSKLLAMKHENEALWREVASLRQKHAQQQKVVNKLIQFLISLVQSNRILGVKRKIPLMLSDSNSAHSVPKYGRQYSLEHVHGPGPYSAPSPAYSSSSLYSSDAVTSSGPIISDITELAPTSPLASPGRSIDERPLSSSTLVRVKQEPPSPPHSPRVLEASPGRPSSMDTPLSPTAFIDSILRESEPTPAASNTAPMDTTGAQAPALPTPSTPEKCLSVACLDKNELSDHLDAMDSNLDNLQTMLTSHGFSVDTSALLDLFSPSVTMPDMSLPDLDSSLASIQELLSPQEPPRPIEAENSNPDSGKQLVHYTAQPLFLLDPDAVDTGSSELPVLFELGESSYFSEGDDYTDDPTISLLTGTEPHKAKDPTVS

Caspase-3 = molecular target: T2, Caspase-3 (Homo sapiens, UniProt P42574); assay: procaspase-3 activation potency of dual hits, dose response, counter-screen for dual procaspase-3/7 activator project, biochemical, absorbance, PC-3 D3A mutant (AID 504328)
T2 sequence (P42574 whole entry): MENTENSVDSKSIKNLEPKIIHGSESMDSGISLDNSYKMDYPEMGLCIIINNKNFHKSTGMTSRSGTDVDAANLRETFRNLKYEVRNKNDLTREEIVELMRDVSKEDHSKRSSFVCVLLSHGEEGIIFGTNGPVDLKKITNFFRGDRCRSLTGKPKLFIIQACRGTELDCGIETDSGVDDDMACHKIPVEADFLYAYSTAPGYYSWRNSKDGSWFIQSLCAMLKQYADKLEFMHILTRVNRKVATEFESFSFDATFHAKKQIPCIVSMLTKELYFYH

[2] = molecular target: T3, Microphthalmia-associated transcription factor (Homo sapiens, UniProt O75030); assay: TRPM1 promoter luciferase signal decrease, dose response, MITF inhibitor project, cell-based, SK-MEL-5, cherry-picked, set 3 (AID 493073); format: functional
T3 sequence (O75030 whole entry): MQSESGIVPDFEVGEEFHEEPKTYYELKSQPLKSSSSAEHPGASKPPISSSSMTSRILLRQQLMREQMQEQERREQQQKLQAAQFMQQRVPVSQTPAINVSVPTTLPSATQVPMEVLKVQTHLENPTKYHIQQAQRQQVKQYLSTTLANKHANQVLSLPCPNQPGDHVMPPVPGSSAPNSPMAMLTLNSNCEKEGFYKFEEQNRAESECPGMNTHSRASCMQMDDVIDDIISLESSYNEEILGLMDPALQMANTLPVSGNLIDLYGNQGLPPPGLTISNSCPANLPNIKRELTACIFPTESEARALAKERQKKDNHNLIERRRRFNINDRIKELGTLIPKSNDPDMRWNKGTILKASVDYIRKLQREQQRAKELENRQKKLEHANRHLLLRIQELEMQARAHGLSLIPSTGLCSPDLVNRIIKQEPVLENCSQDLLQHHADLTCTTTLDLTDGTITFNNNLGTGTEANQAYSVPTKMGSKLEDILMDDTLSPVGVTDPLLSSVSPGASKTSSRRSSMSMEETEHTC

Caspase-7 = Caspase-7 (Homo sapiens, UniProt P55210); assay: procaspase-7 activators, dose response, dual procaspase-3/-7 activator project, biochemical, absorbance, human (AID 504330)
Wee1-like protein kinase = Wee1-like protein kinase (Homo sapiens, UniProt P30291); assay: G2/M cell cycle arrest in HeLa, late-stage follow-up, mechanism study for Wee1 degradation inhibitor project, FACS, panel member Wee1 Degradation (AID 2088)
Chain of Wee1-like protein kinase (P30291 whole entry): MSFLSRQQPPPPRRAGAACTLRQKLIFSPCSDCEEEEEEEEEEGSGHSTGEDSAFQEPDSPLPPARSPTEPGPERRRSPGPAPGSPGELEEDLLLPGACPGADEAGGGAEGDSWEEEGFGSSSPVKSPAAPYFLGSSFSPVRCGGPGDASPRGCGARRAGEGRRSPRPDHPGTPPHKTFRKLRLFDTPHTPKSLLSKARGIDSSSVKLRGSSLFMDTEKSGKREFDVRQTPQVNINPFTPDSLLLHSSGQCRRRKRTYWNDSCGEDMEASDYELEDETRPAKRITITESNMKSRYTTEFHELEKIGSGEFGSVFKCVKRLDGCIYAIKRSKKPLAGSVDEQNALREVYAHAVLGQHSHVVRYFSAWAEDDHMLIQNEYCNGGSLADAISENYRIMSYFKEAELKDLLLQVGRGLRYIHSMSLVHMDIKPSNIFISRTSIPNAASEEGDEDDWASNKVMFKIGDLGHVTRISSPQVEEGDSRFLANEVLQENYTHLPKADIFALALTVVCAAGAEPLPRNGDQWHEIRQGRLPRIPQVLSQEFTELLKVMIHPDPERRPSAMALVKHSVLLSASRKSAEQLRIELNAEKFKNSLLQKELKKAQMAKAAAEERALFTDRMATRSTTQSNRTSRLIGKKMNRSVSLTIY

[3] = molecular target: G2/mitotic-specific cyclin-B1 (Homo sapiens, UniProt P14635); assay: G2/M cell cycle arrest in HeLa, late-stage follow-up, mechanism study for Wee1 degradation inhibitor project, FACS, panel member Cyclin B Degradation (AID 2088)
Chain of G2/mitotic-specific cyclin-B1 (P14635 whole entry): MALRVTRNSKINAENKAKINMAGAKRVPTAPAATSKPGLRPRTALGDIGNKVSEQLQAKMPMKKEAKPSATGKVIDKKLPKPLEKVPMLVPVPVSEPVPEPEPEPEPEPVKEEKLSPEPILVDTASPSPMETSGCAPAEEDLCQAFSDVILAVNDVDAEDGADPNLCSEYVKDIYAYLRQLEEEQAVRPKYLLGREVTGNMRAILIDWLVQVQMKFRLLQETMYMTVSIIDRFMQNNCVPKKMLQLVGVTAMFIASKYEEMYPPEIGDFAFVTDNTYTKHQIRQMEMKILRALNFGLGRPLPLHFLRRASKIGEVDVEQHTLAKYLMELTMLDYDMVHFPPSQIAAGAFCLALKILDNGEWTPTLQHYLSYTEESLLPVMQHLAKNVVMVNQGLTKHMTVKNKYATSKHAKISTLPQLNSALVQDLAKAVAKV

[4] = molecular target: Cyclin-dependent kinase 5/CDK5 activator 1 (Homo sapiens, UniProt Q00535); assay: CDK5/p35 kinase inhibitors, dose response, biochemical, cherry-picked samples, set 2 (AID 504545)
Chain of Cyclin-dependent kinase 5/CDK5 activator 1 (Q00535 whole entry): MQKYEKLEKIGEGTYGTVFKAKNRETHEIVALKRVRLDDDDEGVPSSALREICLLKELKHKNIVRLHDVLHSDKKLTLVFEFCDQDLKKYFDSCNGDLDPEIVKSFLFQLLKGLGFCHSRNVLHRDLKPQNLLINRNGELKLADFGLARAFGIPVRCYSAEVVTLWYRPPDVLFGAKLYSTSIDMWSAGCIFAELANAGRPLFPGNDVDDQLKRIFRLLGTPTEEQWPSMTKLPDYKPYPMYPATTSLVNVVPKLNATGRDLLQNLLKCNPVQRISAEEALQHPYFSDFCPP
Chain of Cyclin-dependent kinase 5/CDK5 activator 1 (Q15078 whole entry, further chain): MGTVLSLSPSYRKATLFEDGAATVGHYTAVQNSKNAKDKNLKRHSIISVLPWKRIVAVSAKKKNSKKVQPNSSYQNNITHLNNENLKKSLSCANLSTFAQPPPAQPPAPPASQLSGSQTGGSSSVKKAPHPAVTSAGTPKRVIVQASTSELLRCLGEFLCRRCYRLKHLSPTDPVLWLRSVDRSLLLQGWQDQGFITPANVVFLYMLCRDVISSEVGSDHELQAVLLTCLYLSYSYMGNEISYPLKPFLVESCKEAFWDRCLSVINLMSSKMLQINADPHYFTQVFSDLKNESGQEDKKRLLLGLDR

[5] = molecular target: Heat shock protein HSP 90-alpha (Homo sapiens, UniProt P07900); format: functional, organism-based
[6] = molecular target: Dual specificity tyrosine-phosphorylation-regulated kinase 1A (Rattus norvegicus, UniProt Q63470); format: biochemical, Homo sapiens
[7] = PhoP regulon inhibitors in S. Typhimurium, SAR follow-up, synthesized compounds, round 3, GFP (AID 434996); format: functional
[8] = molecular target: Metabotropic glutamate receptor 4 (Homo sapiens, UniProt Q14833); assay: Modulation of the Metabotropic Glutamate Receptor mGluR4: Potency at human mGluR4. Modulation of intracellular Ca2+ using Fluo-4, AM, in CHO expressing recombinant receptor [Related pubchem assays (depositor defined):AID2437, AID2807]; format: functional, cell-based
Chain of Metabotropic glutamate receptor 4 (Homo sapiens, UniProt Q14833) (Q14833 whole entry): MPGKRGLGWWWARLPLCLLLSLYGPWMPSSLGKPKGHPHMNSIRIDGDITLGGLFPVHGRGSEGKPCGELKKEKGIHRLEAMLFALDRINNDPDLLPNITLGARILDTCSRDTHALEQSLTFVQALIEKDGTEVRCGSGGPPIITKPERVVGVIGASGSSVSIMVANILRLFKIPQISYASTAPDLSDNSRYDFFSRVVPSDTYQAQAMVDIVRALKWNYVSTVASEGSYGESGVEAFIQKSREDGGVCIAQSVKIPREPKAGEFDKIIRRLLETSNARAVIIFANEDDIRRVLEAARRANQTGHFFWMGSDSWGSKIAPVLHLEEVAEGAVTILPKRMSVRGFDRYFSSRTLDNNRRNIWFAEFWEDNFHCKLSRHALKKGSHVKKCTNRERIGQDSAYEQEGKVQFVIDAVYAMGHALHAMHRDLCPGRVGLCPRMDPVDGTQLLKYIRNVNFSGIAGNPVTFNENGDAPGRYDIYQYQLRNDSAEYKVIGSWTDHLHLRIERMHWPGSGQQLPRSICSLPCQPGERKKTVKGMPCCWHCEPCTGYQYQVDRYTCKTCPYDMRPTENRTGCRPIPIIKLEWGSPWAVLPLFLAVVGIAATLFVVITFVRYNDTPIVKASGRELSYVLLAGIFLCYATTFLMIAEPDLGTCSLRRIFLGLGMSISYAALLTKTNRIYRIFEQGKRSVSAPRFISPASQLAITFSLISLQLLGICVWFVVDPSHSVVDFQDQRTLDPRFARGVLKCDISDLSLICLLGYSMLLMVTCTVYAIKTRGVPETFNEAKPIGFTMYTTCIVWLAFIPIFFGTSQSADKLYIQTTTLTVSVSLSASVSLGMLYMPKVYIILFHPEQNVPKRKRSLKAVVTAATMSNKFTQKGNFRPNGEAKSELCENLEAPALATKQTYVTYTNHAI

[9] = molecular target: Metabotropic glutamate receptor 4 (Rattus norvegicus, UniProt P31423); assay: Modulation of the Metabotropic Glutamate Receptor mGluR4: Rat PAM Potency. [Related pubchem assays (depositor defined):AID2437, AID2807]; format: functional
Chain of Metabotropic glutamate receptor 4 (Rattus norvegicus, UniProt P31423) (P31423 whole entry): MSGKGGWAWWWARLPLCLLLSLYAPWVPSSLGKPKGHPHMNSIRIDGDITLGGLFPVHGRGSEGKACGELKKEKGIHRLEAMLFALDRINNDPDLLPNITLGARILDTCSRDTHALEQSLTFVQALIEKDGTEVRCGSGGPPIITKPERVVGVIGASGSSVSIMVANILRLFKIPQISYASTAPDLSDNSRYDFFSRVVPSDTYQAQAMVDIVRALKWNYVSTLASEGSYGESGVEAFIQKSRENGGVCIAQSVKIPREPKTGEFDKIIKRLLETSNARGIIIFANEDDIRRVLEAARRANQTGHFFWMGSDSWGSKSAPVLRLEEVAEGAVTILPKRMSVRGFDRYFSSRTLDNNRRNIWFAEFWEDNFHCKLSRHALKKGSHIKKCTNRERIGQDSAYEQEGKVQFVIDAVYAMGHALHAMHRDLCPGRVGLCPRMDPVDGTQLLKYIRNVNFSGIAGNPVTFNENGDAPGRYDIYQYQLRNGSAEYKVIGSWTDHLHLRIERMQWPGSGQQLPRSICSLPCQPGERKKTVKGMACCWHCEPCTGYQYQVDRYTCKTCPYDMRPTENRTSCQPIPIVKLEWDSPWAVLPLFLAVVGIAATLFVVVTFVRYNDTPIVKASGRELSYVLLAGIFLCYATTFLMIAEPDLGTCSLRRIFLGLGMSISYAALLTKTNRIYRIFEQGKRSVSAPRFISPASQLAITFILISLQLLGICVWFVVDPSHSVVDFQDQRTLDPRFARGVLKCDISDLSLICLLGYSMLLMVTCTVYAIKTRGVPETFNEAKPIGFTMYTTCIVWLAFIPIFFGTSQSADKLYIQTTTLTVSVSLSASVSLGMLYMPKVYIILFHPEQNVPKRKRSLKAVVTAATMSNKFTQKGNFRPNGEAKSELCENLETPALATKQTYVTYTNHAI

[10] = molecular target: Eukaryotic translation initiation factor 4H (Homo sapiens, UniProt Q15056); assay: human eIF4H binding inhibitors, primary screen, translation initiation inhibitor project, biochemical, uHTS, fluorescence polarization (AID 2012)
[11] = molecular target: Polyadenylate-binding protein 1 (Homo sapiens, UniProt P11940); assay: PABP poly(A) RNA binding inhibitors, primary screen, biochemical, fluorescence polarization, uHTS (AID 2014)
Chain of Polyadenylate-binding protein 1 (P11940 whole entry): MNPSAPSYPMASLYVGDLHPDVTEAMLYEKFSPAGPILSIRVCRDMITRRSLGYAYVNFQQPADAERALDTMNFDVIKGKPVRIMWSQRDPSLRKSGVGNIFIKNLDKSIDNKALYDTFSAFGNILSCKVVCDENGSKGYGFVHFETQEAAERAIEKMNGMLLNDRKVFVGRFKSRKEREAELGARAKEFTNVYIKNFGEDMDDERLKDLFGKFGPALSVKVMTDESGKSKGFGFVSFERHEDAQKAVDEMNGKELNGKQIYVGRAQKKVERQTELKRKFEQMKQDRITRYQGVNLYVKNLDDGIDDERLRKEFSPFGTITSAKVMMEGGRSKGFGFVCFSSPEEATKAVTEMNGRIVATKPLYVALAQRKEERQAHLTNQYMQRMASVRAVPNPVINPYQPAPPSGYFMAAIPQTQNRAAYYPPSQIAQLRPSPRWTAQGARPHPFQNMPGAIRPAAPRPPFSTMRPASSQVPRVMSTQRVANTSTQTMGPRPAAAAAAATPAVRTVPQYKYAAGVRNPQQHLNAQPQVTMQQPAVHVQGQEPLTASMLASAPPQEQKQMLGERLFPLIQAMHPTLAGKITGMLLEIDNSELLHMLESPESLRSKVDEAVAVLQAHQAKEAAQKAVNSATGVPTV

O=C(Nc1ccc2c(c1)OCCO2)c1coc2ccccc2c1=O
EC50 [1]: > 195 µM (not active) | EC50 (Caspase-3): > 85.3 µM (inactive) | AC50 [2]: 46 µM (active) | EC50 (Caspase-7): > 85.3 µM (inactive)

CCc1cccc(NC(=O)CCCOc2cc(=O)n(C)c3ccccc23)c1
EC50 (Wee1-like protein kinase): > 49.7 µM (inactive) | EC50 [3]: > 49.7 µM (inactive)

Nc1cc2c(cc1[N+](=O)[O-])-c1ccccc1C2=NO
AC50 [4]: 41.2 µM (active) | AC50 [5]: 8.8 µM (active) | AC50 [6]: 143 nM (active)

COc1ccccc1CNC(=S)Nc1ccncc1
IC50 [7]: > 150 µM (active)

O=C(Nc1ccc(Cl)c(Cl)c1)c1ccsc1
EC50 [8]: 12.7 µM (active) | EC50 [9]: 9.23 µM (active)

CN(C)CCNc1c2c(nc3ccccc13)CCC2
IC50 [10]: 99.1 µM (active) | IC50 [11]: 32.8 µM (active)
